Laboratory results published in patent publication US7470831B1, “Genetic method” (Syngenta Limited, priority 1997, dated 2008).
Read-outs that look alike come from different tables or passages of the source.

How the values were obtained:
[1] = system: alcA promoter (p35S:alcR / palcA:CAT transgenic tobacco line)
Method: (§1) A selected seedling was grown to maturity to produce a homozygous line. Seedlings of this plant were tested for CAT protein in comparison to seedlings of a similar plant transformed with a construct which expressed CAT from the constitutive high activity CaMV 35S promoter (Table 1).
(§2) Individual seedlings from a homozygous transgenic tobacco line carrying the CAT gene expressed from the alcA promoter were compared with those from a similar line transformed with p35S:CAT. […] Induction was achieved by the addition of 0.1% ethanol to the growth medium for 120 h. The induction medium was replaced at 58 h to maintain ethanol concentrations. One leaf was taken prior to induction, and one leaf after induction. CAT ELISA (Boehringer Mannheim) was performed on crude cell extracts; total protein was determined as described previously (Bradford, Anal Biochem 72: 243 (1976). All values are ng CAT protein per mg total protein, and represent the mean of nine individual replicates±one standard deviation.

[2] = system: CaMV 35S promoter (p35S:CAT transgenic tobacco line)
Method: as §1, §2

[3] = system: palc:Inv transgenic tobacco plants; details: 1% ethanol root drench
Method: (§3) Phenotypic modification started 72 hours after ethanol induction and was strongest after 96 hours. The final phenotype was identical to the previously published results using the 35S CaMV promoter to drive the expression of cytosolic yeast invertase (Sonnewald et al Plant J. 1, 95 (1991)). Development of this phenotype followed maximal invertase activity and was most severe in transformant 28. Photosynthesis fluorescence measurements were used to monitor changes of quantum yield (Schreiber et al, in Ecophysiology of Photosynthesis Vol. 100, Schuize and Caldwell, Eds (Springer Verlag, Berlin, 1994), pp 49-70.) of all three transformant lines in vivo throughout the induction experiment.
Fluorescence measurements were used to monitor changes in photosynthetic parameters during induction of invertase activity using the PAM-2000 instrument (Walz, Effeltrich, Germany). Quantum use efficiency (quantum yield) of photosystem II (PSII) was measured by applying a saturating light beam on light adapted leaves of wildtype and transformed plants (palc:Inv). Before each measurement, it was verified that the saturating pulse had reached a plateau to allow an accurate determination of Fm′. The intensities of the measuring and saturating light beam were adjusted to reach a FO′ value close to 0.4. Measurements were conducted on different leaves having reached 8% (A), 15% (B), or 45% (C) of maximal leaf area of five plants of each genotype at the indicated time points.
Quantum yield of three succeeding light adapted leaves (leaf A-C) starting from the top of the plant was measured using a PAM-2000 instrument at the time points indicated. Values given are the means +−SE (n=5). For plants of line 28, quantum yield was reduced by 23% (p<0.05) and 27% (p<0.05) and for plants of line 10 only by 6% and 17% (p<0.05), respectively.

[4] = system: palcA:cyInv transgenic tobacco plants
Method: as §3

## CCO [Ethanol, ethanol]
[1]; ethanol-induced palc:CAT vs ethanol-treated p35S:CAT
  CAT activity of induced palc:CAT seedlings relative to ethanol-treated p35S:CAT seedlings: 55%
[1]; ethanol-induced palc:CAT vs untreated p35S:CAT
  CAT activity of induced palc:CAT seedlings relative to untreated p35S:CAT seedlings: 39%
[1]; homozygous palcA:CAT seedlings, 0.1% ethanol in growth medium for 120 h, mean of nine replicates ± one SD
  CAT protein level: 30.37 ± 3.91 ng CAT protein per mg total protein
[2]; ethanol-treated p35S:CAT seedlings
  reduction in CAT protein levels relative to the untreated control: 29%
[2]; p35S:CAT seedlings, 0.1% ethanol in growth medium for 120 h, mean of nine replicates ± one SD
  CAT protein level: 55.46 ± 10.85 ng CAT protein per mg total protein
[3]; line 10, leaf B (15% of maximal leaf area)
  reduction of quantum yield: 6%
[3]; line 10, leaf C (45% of maximal leaf area), p<0.05
  reduction of quantum yield: 17%
[3]; line 28, leaf B (15% of maximal leaf area), p<0.05
  reduction of quantum yield: 23%
[3]; line 28, leaf C (45% of maximal leaf area), p<0.05
  reduction of quantum yield: 27%
[4]; 5% vs 1% ethanol (FIG. 3)
  invertase activity in transgenic plants at two ethanol concentrations: dose-dependent
[4]; lines 10, 27 and 28, root drench 100 ml 1% ethanol (v/v)
  time after first addition of ethanol at which elevated invertase activity was measurable: 6 h
[4]; lines 10 and 27, root drench 100 ml 1% ethanol, repeated at 48 and 72 hours
  time after initial root drenching at which invertase activity reached a plateau: 96 h
[4]; palcA:cyInv lines, strongest after 96 hours
  start of phenotypic modification after ethanol induction: 72 h
